The test has as its system sigma receptor. The experiment in a line: [3H]DTG displacement radioligand binding assay, guinea pig brain membranes.
Where [1] appears, read: Example 25, guinea pig brain membrane homogenates, read-out: IC50 binding values.
Setting [2] is: list of especially preferred compounds, read-out: IC50 (high binding to the sigma receptor).
Where [3] appears, read: read-out: IC50 vs [3H]DTG, Table I, guinea pig brain membranes.

Experimental findings from patent US5574070A, “Substituted guanidines having high binding to the sigma receptor and the use thereof” (priority 1993, dated 1996) are described below.

“Also recorded” adds a separate entry of the source. Where a name gives a salt, the structure may show the parent alone. Read-outs that look alike come from different tables or passages of the source.

In the case of “1,1-dimethyl-4-guanidine [reference compound]”, the “displacement of [3H]DTG” value is recorded as “no significant displacement”.

Turning to `N=C(NC1CC2CCC1C2)NC1CC2CCC1C2` (racemic) [N,N'-di-((±)-endo-2-norbornyl)guanidine], the “in vitro [3H]DTG displacement activity” value was “found to possess the aforesaid in vitro [^3 H]DTG displacement activity”. Moreover, the IC50 – broadly, the concentration at which inhibition is half-maximal – under setting [1] was 16 nM. In addition, the IC50 under setting [2] came out at 16 nM.

Turning to `Cc1ccccc1NC(=N)N[C@@H]1C[C@@H]2CC[C@H]1C2` (relative stereo) [N-((±)-endo-2-norbornyl)-N'-(2-methylphenyl)guanidine], the IC50 under setting [2] came out at 6 nM.

Consider `CC1(C)[C@H]2CC[C@]1(C)[C@@H](NC(=N)Nc1ccccc1I)C2` (relative stereo) [N-(exo-2-isobornyl)-N'-(o-iodophenyl)guanidine], for which the “in vitro [3H]DTG displacement activity” value is “found to possess the aforesaid in vitro [^3 H]DTG displacement activity”. Moreover, the IC50 under setting [1] is 18 nM. The IC50 under setting [2] worked out at 18 nM.

Turning to `Cc1ccccc1NC(=N)N[C@H]1C[C@@H]2CC[C@@]1(C)C2(C)C` (relative stereo) [N-(exo-2-isobornyl)-N'-(o-tolyl)guanidine], the “in vitro [3H]DTG displacement activity” value was “found to possess the aforesaid in vitro [^3 H]DTG displacement activity”. In addition, under setting [1], the IC50 stood at 25 nM. The IC50 under setting [2] worked out at 25 nM.

Take `N=C(Nc1ccccc1I)N[C@H]1C[C@@H]2CC[C@H]1C2` (relative stereo) [N-(exo-2-norbornyl)-N'-(2-iodophenyl)guanidine]: the IC50 under setting [2] is 4 nM.

`C=CCN1CCC2(C)c3cc(O)ccc3CC1C2C` (single isomer, unassigned; (+)) [(+)SKF 10,047, N-allyl-normetazocine, reference compound]: under “read-out: IC50 vs. [3H]DTG”, the IC50 was 625 ± 88 nM.

As for `CN(C)CCC=C1c2ccccc2CCc2ccccc21` [Amitriptyline, reference compound], the IC50 (read-out: IC50 vs. [3H]DTG, Table III, ± SEM, average from 2-4 separate experiments in triplicate) came out at 300 ± 7 nM.

On to `N=C1Nc2ccccc2-c2ccccc2N1` [Bridge-DPG, 2-imino-1,3H-dibenzo[d,f]-[1,3]-diazepine], for which, under setting [1], the IC50 was more than 10000 nM.

Consider `CN(C)CCCN1c2ccccc2Sc2ccc(Cl)cc21` [Chlorpromazine, reference compound], for which the IC50 reads like this: (read-out: IC50 binding values) 1480 ± 265 nM; (read-out: IC50 vs. [3H]DTG) 1480 nM.

For the compound `Clc1cccc(Cl)c1N=C1NCCN1` [Clonidine, reference compound], for the setting “read-out: IC50 vs. [3H]DTG”, the IC50 is more than 10000 nM.

Consider `CNC(=N)NC` [DMG, N,N'-di(methyl)guanidine, reference compound], for which the IC50 under setting [1] was more than 10000 nM.

As to `Cc1cccc(C)c1NC(=N)Nc1c(C)cccc1C` [DXG, N,N'-di-(2,6-dimethylphenyl)guanidine], the “in vitro [3H]DTG displacement activity” value was “found to possess the aforesaid in vitro [^3 H]DTG displacement activity”. Further, under setting [1], the IC50 came to 90 ± 18 nM. Besides, under setting [2], the IC50 stood at 90 nM. Further, under setting [3], the IC50 was found to be 90 ± 18 nM.

Turning to `Cc1cc(Br)ccc1NC(=N)Nc1ccc(Br)cc1C` [Example 4-Br--DTG, N,N'-Di-(4-bromo-2-methylphenyl)guanidine], the “in vitro [3H]DTG displacement activity” value was “found to possess the aforesaid in vitro [^3 H]DTG displacement activity”. Besides, the IC50 under setting [1] was 37 nM. The IC50 under setting [2] is 37 nM. The IC50 under setting [3] was found to be 37 ± 3 nM.

For the compound `O=C(CCCN1CCC(O)(c2ccc(Cl)cc2)CC1)c1ccc(F)cc1` [Haloperidol, reference compound], the “affinity for / displacement at the [3H]DTG binding site” value is “all specific binding is displaceable by haloperidol; also recorded: highest displacement potency of all drugs tested”.

As to `CN(C)CCCN1c2ccccc2CCc2ccccc21` [Imipramine, reference compound], for the setting “read-out: IC50 vs. [3H]DTG”, the IC50 stood at 520 ± 14 nM.

Regarding `CCc1cccc(N2CCN(c3cccc(CC)c3)C2=N)c1` [N,N'-Bis (3-ethylphenyl)-2-imino-imidazolidine], under setting [2], the IC50 was 70 nM.

`N=C(NC1CCCCC1)NC1CCCCC1` [N,N'-di(cyclohexyl)guanidine]: the “in vitro [3H]DTG displacement activity” value is “found to possess the aforesaid in vitro [^3 H]DTG displacement activity”. The IC50 under setting [1] was determined as 71 nM. Under setting [2], the IC50 is 71 nM. Also, under setting [3], the IC50 is 71 ± 7 nM.

With `Cc1cc(I)ccc1NC(=N)Nc1ccc(I)cc1C` [N,N'-di-(2-methyl-4-iodophenyl)guanidine], the “in vitro [3H]DTG displacement activity” value was “found to possess the aforesaid in vitro [^3 H]DTG displacement activity”.

On to `N=C(NC1CC2CCC1C2)NC1CC2CCC1C2` (stereo not drawn) [N,N'-di-(exo-2-norbornyl)guanidine], for which the “in vitro [3H]DTG displacement activity” value is “found to possess the aforesaid in vitro [^3 H]DTG displacement activity”. In addition, the IC50 under setting [1] amounted to 22 nM. In addition, the IC50 under setting [2] was found to be 22 nM.

On to `CCCCNC(=N)NCCCC` [N,N'-di-n-butyl-guanidine], for which the “in vitro [3H]DTG displacement activity” value is “found to possess the aforesaid in vitro [^3 H]DTG displacement activity”. Besides, the IC50 under setting [3] amounted to 750 ± 33 nM.

Regarding `N=C(NCc1ccccc1)NCc1ccccc1` [N,N'-dibenzylguanidine], the “in vitro [3H]DTG displacement activity” value was “found to possess the aforesaid in vitro [^3 H]DTG displacement activity”. The IC50 under setting [1] is 90 nM. Further, the IC50 under setting [2] was determined as 90 nM.

As for `N=C(Nc1ccccc1[N+](=O)[O-])NC12CC3CC(CC(C3)C1)C2` [N-(1-adamantyl)-N'-(o-nitrophenyl)guanidine], the “in vitro [3H]DTG displacement activity” value was “found to possess the aforesaid in vitro [^3 H]DTG displacement activity”. Also, the IC50 under setting [1] came out at 30 nM. The IC50 under setting [2] was 30 nM.

In the case of `Cc1ccccc1NC(=N)Nc1c(C)cccc1C` [N-(2,6-dimethylphenyl)-N'-(2-methylphenyl)-guanidine], the “in vitro [3H]DTG displacement activity” value was “found to possess the aforesaid in vitro [^3 H]DTG displacement activity”. Moreover, the IC50 under setting [1] was found to be 70 nM. In addition, the IC50 under setting [2] was 70 nM. Moreover, the IC50 under setting [3] was determined as 70 ± 3 nM.

Take `Cc1ccccc1NC(=N)Nc1ccc(N=[N+]=[N-])cc1C` [N-(2-Methyl-4-azido-phenyl)-N'-(2-methylphenyl)guanidine]: the “in vitro [3H]DTG displacement activity” value is “found to possess the aforesaid in vitro [^3 H]DTG displacement activity”. Besides, the IC50 under setting [2] worked out at 20 nM. Also, the IC50 under setting [3] was 20 ± 1 nM.

On to `Cc1ccccc1NC(=N)Nc1ccc([N+](=O)[O-])cc1C` [N-(2-Methyl-4-nitrophenyl)-N'-(2-methyl-phenyl)guanidine], for which the “in vitro [3H]DTG displacement activity” value was “found to possess the aforesaid in vitro [^3 H]DTG displacement activity”. Further, under setting [1], the 50% inhibitory concentration (IC50) is 37 nM. The 50% inhibitory concentration (IC50) under setting [2] worked out at 37 nM. In addition, the IC50 under setting [3] was 37 ± 5 nM.

For the compound `Cc1ccccc1NC(=N)Nc1ccccc1I` [N-(2-iodophenyl)-N'-(2-methylphenyl)-guanidine], the “in vitro [3H]DTG displacement activity” value was “found to possess the aforesaid in vitro [^3 H]DTG displacement activity”. Under setting [1], the IC50 was 21 nM. In addition, the IC50 under setting [2] amounted to 21 nM. Besides, the IC50 under setting [3] amounted to 21 ± 1 nM.

Turning to `CC12CC3CC(C)(C1)CC(NC(=N)Nc1ccccc1I)(C3)C2` [N-(3,5-dimethyl-1-adamantanyl)-N'-(o-iodophenyl)guanidine], the “in vitro [3H]DTG displacement activity” value is “found to possess the aforesaid in vitro [^3 H]DTG displacement activity”. In addition, the IC50 under setting [1] is 16 nM. For the same compound, the IC50 under setting [2] came to 16 nM.

Turning to `Cc1ccccc1NC(=N)NC12CC3CC(C)(CC(C)(C3)C1)C2` [N-(3,5-dimethyladamantan-1-yl)-N'-(o-tolyl)guanidine], the “in vitro [3H]DTG displacement activity” value is “found to possess the aforesaid in vitro [^3 H]DTG displacement activity”. The IC50 under setting [1] is 15 nM. The IC50 under setting [2] worked out at 15 nM.

In the case of `Cc1ccccc1N(C)C(=N)NC12CC3CC(CC(C3)C1)C2` [N-(Adamantan-1-yl)-N'-(2-methylphenyl)-N'-methyl-guanidine], the IC50 under setting [2] was 22.6 nM and the IC50 (read-out: IC50 vs [3H]DTG, Table II, ± s.e.m. (n)) was 22.6 nM.

Turning to `CC(C)c1ccccc1NC(=N)NC12CC3CC(CC(C3)C1)C2` [N-(adamant-1-yl)-N'-(o-isopropylphenyl)guanidine], the “in vitro [3H]DTG displacement activity” value is “found to possess the aforesaid in vitro [^3 H]DTG displacement activity”. For the same compound, the half-inhibitory concentration (IC50) under setting [1] was found to be 24 nM. The IC50 under setting [2] amounted to 24 nM.

For the compound `Cc1cc(Br)ccc1NC(=N)NC12CC3CC(CC(C3)C1)C2` [N-(adamant-1-yl)-N'-(p-bromo-o-tolyl)guanidine], the “in vitro [3H]DTG displacement activity” value was “found to possess the aforesaid in vitro [^3 H]DTG displacement activity”. For the same compound, the IC50 under setting [2] came out at 2.7 nM.

Consider `N=C(Nc1ccccc1I)NC1C2CC3CC(C2)CC1C3` (stereo not drawn) [N-(adamant-2-yl)-N'-(2-iodophenyl)guanidine], for which the IC50 by setting is: under setting [1], 5.2 nM; under setting [2], 3.5 nM.

Regarding `Cc1ccccc1NC(=N)NC1C2CC3CC(C2)CC1C3` (stereo not drawn) [N-(adamant-2-yl)-N'-(2-methylphenyl)guanidine], the IC50 under setting [2] stood at 7 nM.

As for `N=C(Nc1ccc(I)cc1)NC1C2CC3CC(C2)CC1C3` (stereo not drawn) [N-(adamant-2-yl)-N'-(p-iodophenyl)guanidine], the “in vitro [3H]DTG displacement activity” value is “found to possess the aforesaid in vitro [^3 H]DTG displacement activity”. Besides, the IC50 under setting [1] was determined as 2.7 nM.

Turning to `CC(C)(C)NC(=N)Nc1ccccc1I` [N-(o-iodophenyl)-N'-(t-butyl)guanidine], the “in vitro [3H]DTG displacement activity” value was “found to possess the aforesaid in vitro [^3 H]DTG displacement activity”. The 50% inhibitory concentration (IC50) under setting [1] was determined as 20 nM. In addition, the IC50 under setting [2] amounted to 20 nM.

Take `Cc1ccccc1NC(=N)Nc1ccc(N)cc1C` [NH2 --DTG, N-(2-Methyl-4-aminophenyl)-N'-(2-methylphenyl)-guanidine hydrochloride]: the IC50 by setting is: under setting [1], 280 ± 20 nM; under setting [3], 280 ± 14 nM.

For `CNCCC=C1c2ccccc2CCc2ccccc21` [Nortriptyline, reference compound], the IC50 (read-out: IC50 vs. [3H]DTG) came to 2000 nM.

On to `CN(C)CCCN1c2ccccc2Sc2ccc(C(F)(F)F)cc21` [Trifluopromazine, reference compound], for which the half-inhibitory concentration (IC50) (read-out: IC50 vs. [3H]DTG) amounted to 605 ± 67 nM.

For the compound `CN1CCc2cccc3c2[C@H]1Cc1ccc(O)c(O)c1-3` [apomorphine, reference compound], the “displacement of [3H]DTG” value (10 uM) is “no significant displacement”.
